Holding throughout (assay): Long-term proliferation (LTP) assay, CellTiterGlo (Example 103)
For experiment [1], the system named is MV4-11 (MLL-AF4) cells. In kind it is cell-based, human. The settings on record: for IC50: Homo sapiens, MV4-11 (MLL-AF4), LTP assay. How it is done: (§1) The day of the experiment (TO) all the cell line suspensions were counted by Cell Viability Analyser, Vi-CELL and properly diluted with fresh medium to obtain the cell density reported in the Test System paragraph.
(§2) Cells were tested after 4 passages after thawing.
(§3) 200 μL/well and 150 μL/well of cell suspension were added into the 0.4 µL/well and 0.3 μL/well compound plates, respectively. • Cell plate containing 200 μL/well suspension was incubated at 37° C. in a humidified incubator with 5% CO2. • From each well of the 150 µL/well cell assay plate, 100 μL were harvested and transferred into a 96-well Optiplate (Perkin Elmer, Cat. n. 6005290) and cell viability was measured as described in 4.3 paragraphs (TO). • After four days in culture (T4) 150 μL/well of fresh medium were added into a new […] copy compound plate. • From each well of the 200 μL/well cell assay plate: • 100 μL were sampled for the cell viability measurement as described in 4.3 paragraphs (T4). • 50 μL were harvested and added to the 150 μL/well compound plate prepared as described in the first point to dilute 1:4 the cell suspension. • The cell assay plate diluted and containing 200 µL/well suspension were incubated at 37° C. in a humidified incubator with 5% CO2.
(§4) At T7-T11-T14 it was proceeded as described in T4, with the exception that no further cell dilution was carried out at T14.
(§5) Plates containing the samples to be tested were equilibrated at room temperature for approximately 30 min and then 30 μL/well of the Promega CellTiterGlo® reagent were added. Contents will be mixed for 5 min on an orbital shaker to induce cell lysis and then incubated at room temperature for an additional 10 min to stabilize the luminescent signal.
(§6) Luminescence was read by using VictorV (Perkin Elmer) multilabel plate reader using the standard protocol for luminescence in 96 well plate.
(§7) Data were expressed as % of inhibition compared to the 0.2% DMSO negative control, and was calculated as follows: % inhibition=100−[(RLU sample)×100/(RLU average controls*)] • *cells containing 0.2% DMSO
(§8) CRCs were analysed by GraphPad and IC50 values were calculated by non-linear regression using 4 parameter-logistic equation. IC50 (M) values were reported in the final data table.

For experiment [2], the system named is MOLM-13 (MLL-AF9) cells. It counts as cell-based, human. The conditions noted are these: for IC50: Homo sapiens, MOLM-13 (MLL-AF9), LTP assay. Here is the method: as §1, §2, §3, §4, §5, §6, §7, §8
Experiment [3] deals with HL-60 cells. It counts as cell-based. The settings on record: for IC50: Homo sapiens. Here is the method: as §1, §2, §3, §4, §5, §6, §7, §8
The subject of experiment [4] is RS4-11 (MLL-AF4) cells. In kind it is cell-based. The conditions noted are these: for IC50: Homo sapiens, RS4-11 (MLL-AF4), LTP assay. How it is done:
as §1, §2, §3, §4, §5, §6, §7, §8

The mark [5] stands for this setting: 96 h, Day 4, read-out: Day 4 IC50.
[6] abbreviates: 168 h, Day 7, read-out: Day 7 IC50.
The mark [7] stands for this setting: 264 h, Day 11, read-out: Day 11 IC50.
[8] abbreviates: 336 h, Day 14, read-out: Day 14 IC50.

The text below walks through data of US12116371B2, “Substituted pyridines as irreversible inhibitors of menin-MLL interaction” (BIOMEA FUSION, INC., priority 2018, dated 2024).

Read-outs that look alike come from different tables or passages of the source.

Consider `C=CC(=O)NC1CCCN(Cc2ccnc(C(=O)Nc3ccc(-c4cc5c(N6CCOCC6)ncnc5[nH]4)cc3)c2)C1` (stereo not shown) [Compound 10], for which the IC50 in experiment [1] (setting [5]) was 460 nM; in experiment [1] (setting [6]), 290 nM; in experiment [1] (setting [7]), 220 nM; in experiment [1] (setting [8]), 200 nM; in experiment [2] (setting [5]) it was 260 nM; in experiment [2] (setting [6]), 280 nM. Besides, the IC50 in experiment [2] (setting [7]) stood at 240 nM; in experiment [2] (setting [8]), 230 nM; in experiment [3] (96 h, Day 4, LTP assay, read-out: Day 4 IC50) it was 430 nM; in experiment [3] (168 h, Day 7, LTP assay, read-out: Day 7 IC50), 260 nM; in experiment [3] (264 h, Day 11, LTP assay, read-out: Day 11 IC50), 290 nM; in experiment [3] (336 h, Day 14, LTP assay, read-out: Day 14 IC50), 270 nM. In addition, the IC50 is 500 nM in experiment [4] (setting [5]), 470 nM in experiment [4] (setting [6]) and more than 5000 nM in experiment [4] (setting [7]). Moreover, the “effect on cell viability at T4” value in experiment [1] (MV4-11, T4, increasing concentrations) is “fully inhibited”; in experiment [2] (MOLM-13, T4, increasing concentrations) it was “fully inhibited”; in experiment [3] (T4, increasing concentrations) it was “fully inhibited”; in experiment [4] (RS4;11, T4, increasing concentrations), “fully inhibited”.

One may read the IC50 as the concentration that gives 50% inhibition.
